The compounds below were run against T1, cMET receptor tyrosine kinase (GST-cMET (969-1390)) (Homo sapiens, UniProt P08581) (assay: EPK cMET profiling assay (LanthaScreen TR-FRET antibody based kinase phosphorylation assay)). Conditions: purified recombinant GST-cMET (969-1390), 2 μM ATP, 50 nM Fluorescein-PolyEAY, 60 minutes at room temperature; read-out: c-Met IC50.
T1 construct: made in house
Assay type: biochemical
Summary of the method: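 Compounds tested at eight final concentrations from 10 down to 0.003 µM against affinity-purified GST-cMET (969-1390, 0.3 nM) with 2 µM ATP and 50 nM fluorescein-PolyEAY in Tris buffer with MgCl2 and MnCl2, 1 h at room temperature. After EDTA stop, phosphoproduct detected by LanthaScreen TR-FRET with Tb-PY20 antibody, end-point measurement.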

T1 sequence (P08581 969-1390): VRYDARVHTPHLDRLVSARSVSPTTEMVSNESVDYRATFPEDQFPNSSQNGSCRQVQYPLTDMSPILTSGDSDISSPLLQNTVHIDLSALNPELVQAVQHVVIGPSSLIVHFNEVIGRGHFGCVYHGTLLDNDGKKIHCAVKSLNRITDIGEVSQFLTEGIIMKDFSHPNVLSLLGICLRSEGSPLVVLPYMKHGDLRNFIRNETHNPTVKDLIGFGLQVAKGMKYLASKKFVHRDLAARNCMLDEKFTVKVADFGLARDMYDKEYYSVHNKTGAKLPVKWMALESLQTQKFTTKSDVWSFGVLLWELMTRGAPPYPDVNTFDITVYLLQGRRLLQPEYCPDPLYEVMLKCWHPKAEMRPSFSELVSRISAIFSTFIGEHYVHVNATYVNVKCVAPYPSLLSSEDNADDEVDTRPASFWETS

Structure (SMILES) | IC50 [nM]
OC(c1cc2cccnc2cc1F)c1cnc2ccc(-c3cn[nH]c3)nn12 (racemic) [Example 252, (rac)-(7-Fluoro-quinolin-6-yl)-[6-(1H-pyrazol-4-yl)-imidazo[1,2-b]pyridazin-3-yl]-methanol] | 280
c1cnc2ccc(Cc3cnc4ccc(-c5cnn(C6CCNCC6)c5)nn34)cc2c1 [Example 7, 6-[6-(1-piperidin-4-yl-1H-pyrazol-4-yl)-imidazo[1,2-b]pyridazin-3-ylmethyl]-quinoline] | 50
Brc1ccc(-c2ccc3ncc(Cc4ccc5ncccc5c4)n3n2)cc1 [Example 19, 6-[6-(4-Bromo-phenyl)-imidazo[1,2-b]pyridazin-3-ylmethyl]-quinoline] | 215
OCCn1cc(-c2ccc3ncc(Cc4ccc5ncccc5c4Cl)n3n2)cn1 [Example 226, 2-{4-[3-(5-Chloro-quinolin-6-ylmethyl)-imidazo[1,2-b]pyridazin-6-yl]-pyrazol-1-yl}-ethanol] | 25
FC(F)(c1ccc2ncccc2c1)c1cnc2ccc(-c3cnn(C4CCNCC4)c3)nn12 [Example 197, 6-{Difluoro-[6-(1-piperidin-4-yl-1H-pyrazol-4-yl)-imidazo[1,2-b]pyridazin-3-yl]-methyl}-quinoline] | 61
Cn1cc(-c2ccc3ncc(Cc4ccc5nccn5c4)n3n2)cn1 [Example 10, 3-Imidazo[1,2-a]pyridin-6-ylmethyl-6-(1-methyl-1H-pyrazol-4-yl)-imidazo[1,2-b]pyridazine] | 21.5
COc1ncc(-c2ccc3ncc(Cc4ccc5ncccc5c4)n3n2)cn1 [Example 56, 6-[6-(2-Methoxy-pyrimidin-5-yl)-imidazo[1,2-b]pyridazin-3-ylmethyl]-quinoline] | 250
Cn1cc(-c2ccc3ncc(Cc4ccc5c(cnn5C)c4)n3n2)cn1 [Example 276, 3-(1-Methyl-1H-indazol-5-ylmethyl)-6-(1-methyl-1H-pyrazol-4-yl)-imidazo[1,2-b]pyridazine] | 82
OCCNc1ccc2ncc(Cc3ccc4ncccc4c3)n2n1 [Example 92, 2-(3-Quinolin-6-ylmethyl-imidazo[1,2-b]pyridazin-6-ylamino)-ethanol] | 32
F[C@H]1CCN(c2ccc3ncc(Cc4ccc5ncccc5c4)n3n2)C1 [Example 125, 6-[6-((S)-3-Fluoro-pyrrolidin-1-yl)-imidazo[1,2-b]pyridazin-3-ylmethyl]-quinoline] | 130
Cn1cc(-c2ccc3ncc(Cc4c(F)cc5ncccc5c4F)n3n2)cn1 [Example 170, 5,7-Difluoro-6-[6-(1-methyl-1H-pyrazol-4-yl)-imidazo[1,2-b]pyridazin-3-ylmethyl]-quinoline] | 6
OCCCc1ccc(-c2ccc3ncc(Cc4ccc5ncccc5c4)n3n2)cc1 [Example 64, 3-[4-(3-Quinolin-6-ylmethyl-imidazo[1,2-b]pyridazin-6-yl)-phenyl]-propan-1-ol] | 79
c1cn2cc(Cc3cnc4ccc(-c5cn[nH]c5)nn34)ccc2n1 [Example 290, 3-Imidazo[1,2-a]pyridin-6-ylmethyl-6-(1H-pyrazol-4-yl)-imidazo[1,2-b]pyridazine] | 120
COc1cccc(Nc2ccc3ncc(Cc4ccc5ncccc5c4)n3n2)c1 [Example 140, (3-Methoxy-phenyl)-(3-quinolin-6-ylmethyl-imidazo[1,2-b]pyridazin-6-yl)-amine] | 310
Cn1cc(-c2ccc3ncc(Cc4ccc5ncc(-c6cccnc6)n5c4)n3n2)cn1 [Example 306, 6-(1-Methyl-1H-pyrazol-4-yl)-3-(3-pyridin-3-yl-imidazo[1,2-a]pyridin-6-ylmethyl)-imidazo[1,2-b]pyridazine] | 100
CCCn1cc(-c2ccc3ncc(Cc4ccc5ncccc5c4)n3n2)cn1 [Example 46, 6-[6-(1-Propyl-1H-pyrazol-4-yl)-imidazo[1,2-b]pyridazin-3-ylmethyl]-quinoline] | 57
FC(F)(F)c1cccc(Nc2ccc3ncc(Cc4ccc5ncccc5c4)n3n2)c1 [Example 127, (3-Quinolin-6-ylmethyl-imidazo[1,2-b]pyridazin-6-yl)-(3-trifluoromethyl-phenyl)-amine] | 90
Cn1cc(-c2ccc3ncc(Cc4ccc5ncc(-c6cnn(C)c6)n5c4)n3n2)cn1 [Example 307, 6-(1-Methyl-1H-pyrazol-4-yl)-3-[3-(1-methyl-1H-pyrazol-4-yl)-imidazo[1,2-a]pyridin-6-ylmethyl]-imidazo[1,2-b]pyridazine] | 320
COCCn1cc(-c2ccc3ncc(Cc4cc5cccnc5cc4F)n3n2)cn1 [Example 234, 7-Fluoro-6-{6-[1-(2-methoxy-ethyl)-1H-pyrazol-4-yl]-imidazo[1,2-b]pyridazin-3-ylmethyl}-quinoline] | 110
COc1ccc2cc(-c3ccc4ncc(Cc5ccc6ncccc6c5)n4n3)ccc2c1 [Example 40, 6-[6-(6-Methoxy-naphthalen-2-yl)-imidazo[1,2-b]pyridazin-3-ylmethyl]-quinoline] | 130

Structure (SMILES) | IC50 [nM]
Cn1cc(-c2ccc3ncc(C(O)c4ccc5ncccc5c4)n3n2)cn1 (racemic) [Example 1, (rac)-[6-(1-Methyl-1H-pyrazol-4-yl)-imidazo[1,2-b]pyridazin-3-yl]-quinolin-6-yl-methanol] | 140
CN1CCC(n2cc(-c3ccc4ncc(Cc5ccc6ncccc6c5)n4n3)cn2)CC1 [Example 238, 6-{6-[1-(1-Methyl-piperidin-4-yl)-1H-pyrazol-4-yl]-imidazo[1,2-b]pyridazin-3-ylmethyl}-quinoline] | 230
Cn1cc(-c2ccc3ncc([C@@H](O)c4ccc5ncccc5c4)n3n2)cn1 [Example 152, (S)-[6-(1-Methyl-1H-pyrazol-4-yl)-imidazo[1,2-b]pyridazin-3-yl]-quinolin-6-yl-methanol] | 890
c1cnc2ccc(Cc3cnc4ccc(Nc5ccncn5)nn34)cc2c1 [Example 131, Pyrimidin-4-yl-(3-quinolin-6-ylmethyl-imidazo[1,2-b]pyridazin-6-yl)-amine] | 180
CC(C)(C)OC(=O)N1CCC(n2cc(-c3ccc4ncc(Cc5c(F)cc6ncccc6c5F)n4n3)cn2)CC1 [Example 244, 4-{4-[3-(5,7-Difluoro-quinolin-6-ylmethyl)-imidazo[1,2-b]pyridazin-6-yl]-pyrazol-1-yl}-piperidine-1-carboxylic acid tert-butyl ester] | 87
Fc1cc2ncccc2cc1Cc1cnc2ccc(-c3cnn(C4CCNCC4)c3)nn12 [Example 180, 7-Fluoro-6-[6-(1-piperidin-4-yl-1H-pyrazol-4-yl)-imidazo[1,2-b]pyridazin-3-ylmethyl]-quinoline] | 145
CC(c1ccc2n[nH]cc2c1)c1cnc2ccc(-c3cnn(CCO)c3)nn12 (racemic) [Example 190, (rac)-2-(4-{3-[1-(2H-Indazol-5-yl)-ethyl]-imidazo[1,2-b]pyridazin-6-yl}-pyrazol-1-yl)-ethanol] | 56
CCC(C)Nc1ccc2ncc(Cc3ccc4ncccc4c3)n2n1 (stereo not drawn) [Example 78, sec-Butyl-(3-quinolin-6-ylmethyl-imidazo[1,2-b]pyridazin-6-yl)-amine] | 9
CC(c1ccc2nccn2c1)c1cnc2ccc(Cl)nn12 (racemic) [Example 292, (rac)-6-Chloro-3-(1-imidazo[1,2-a]pyridin-6-yl-ethyl)-imidazo[1,2-b]pyridazine] | 80
O[C@H]1CCN(c2ccc3ncc(Cc4ccc5ncccc5c4)n3n2)C1 [Example 107, (S)-1-(3-Quinolin-6-ylmethyl-imidazo[1,2-b]pyridazin-6-yl)-pyrrolidin-3-ol] | 20
CC(c1cc2cccnc2cc1F)c1cnc2ccc(-c3cnn(C)c3)nn12 (racemic) [Example 253, (rac)-7-Fluoro-6-{1-[6-(1-methyl-1H-pyrazol-4-yl)-imidazo[1,2-b]pyridazin-3-yl]-ethyl}-quinoline] | 13
FC(F)(F)c1ccc(-c2ccc3ncc(Cc4ccc5ncccc5c4)n3n2)cc1 [Example 33, 6-[6-(4-Trifluoromethyl-phenyl)-imidazo[1,2-b]pyridazin-3-ylmethyl]-quinoline] | 370
Cn1cc(-c2ccc3ncc(C(F)(F)c4ccc5ncccc5c4)n3n2)cn1 [Example 6, 6-{Difluoro-[6-(1-methyl-1H-pyrazol-4-yl)-imidazo[1,2-b]pyridazin-3-yl]-methyl}-quinoline] | 14
COCCOCCn1cc(-c2ccc3ncc(Cc4cc5cccnc5cc4F)n3n2)cn1 [Example 233, 7-Fluoro-6-(6-{1-[2-(2-methoxy-ethoxy)-ethyl]-1H-pyrazol-4-yl}-imidazo[1,2-b]pyridazin-3-ylmethyl)-quinoline] | 120
F[C@@H]1CCN(c2ccc3ncc(Cc4ccc5ncccc5c4)n3n2)C1 [Example 124, 6-[6-((R)-3-fluoro-pyrrolidin-1-yl)-imidazo[1,2-b]pyridazin-3-ylmethyl]-quinoline] | 180
CCn1nccc1Nc1ccc2ncc(Cc3ccc4ncccc4c3)n2n1 [Example 132, (2-Ethyl-2H-pyrazol-3-yl)-(3-quinolin-6-ylmethyl-imidazo[1,2-b]pyridazin-6-yl)-amine] | 50
CN1CCC(n2cc(-c3ccc4ncc(Cc5cc6cccnc6cc5F)n4n3)cn2)CC1 [Example 181, 7-Fluoro-6-{6-[1-(1-methyl-piperidin-4-yl)-1H-pyrazol-4-yl]-imidazo[1,2-b]pyridazin-3-ylmethyl}-quinoline] | 65
Cn1cc(-c2ccc3ncc(Cc4cc5cccnc5cc4Cl)n3n2)cn1 [Example 241, 7-Chloro-6-[6-(1-methyl-1H-pyrazol-4-yl)-imidazo[1,2-b]pyridazin-3-ylmethyl]-quinoline] | 37.5
O=C1CCN(c2ccc3ncc(Cc4ccc5ncccc5c4)n3n2)CC1 [Example 120, 1-(3-Quinolin-6-ylmethyl-imidazo[1,2-b]pyridazin-6-yl)-piperidin-4-one] | 69

Reference: US8822468B2 (Novartis AG, priority 2008, dated 2014)
